Experimental data: patent US11999720B2, “Pyrazolylacylpyrazoline compounds and method for treating pain” (THE TRUSTEES OF INDIANA UNIVERSITY, priority 2018, dated 2024)

How the values were obtained:
[1] = tested on: acute thermal nociception in the rat; test: acute thermal nociception in the rat (Hargreaves' plantar test); type: in vivo; conditions: for paw withdrawal latency (PWL), analgesic effect: rats, n=6 per group, FIG. 12
Method: Pathogen-free, adult, female Sprague Dawley (weight at testing 150-200 g; Harlan-Sprague-Dawley, Indianapolis, IN) were housed in a climate-controlled room on a 12-hour light/dark cycle and were allowed to have food and water ad libitum. All procedures were approved by the Indiana University Animal Care and Use Committee and conformed to the guidelines of the National Institutes of Health (publication no. 80-23, 1966) for the use of laboratory animals. All behavioral experiments were conducted by experimenters blinded to the treatment conditions and compound identity. The experiments were replicated a minimum of 2 times with independent cohorts of animals. For in vivo studies, the inventive compounds were freshly prepared saline (0.9%) on the day of the experiment. […] Louis, MO) was freshly prepared on the day of the experiment in saline. All drugs were dissolved in 1 mL solution and administered by intraperitoneal (i.p.) injections 1 h prior to all behavioral assays. To evaluate the PWT to thermal stimulation, the Hargreaves' plantar test apparatus (Ugo Basile, Varese, Italy) was used. Measurements of the withdrawal latency of the paw began after the rats were habituated to the testing environment (IR setting=70). The measurements were repeated four times, at 5 min intervals and the initial pair of measurements was not used. The averages of the three remaining pairs of measurements taken were employed as data. A model of behavioral sensitivity using thermal stimulus was used to determine the acute analgesic properties of the compounds of the present invention.

[2] = tested on: T1, CaV2.2 channels in HEK-CaV2.2 cells (Rattus norvegicus); test: whole cell patch-clamp, CaV2.2 currents in HEK-CaV2.2 cells; type: cell-based
T1 construct: expressed in transfected cells
T1 sequence (P54287 whole entry): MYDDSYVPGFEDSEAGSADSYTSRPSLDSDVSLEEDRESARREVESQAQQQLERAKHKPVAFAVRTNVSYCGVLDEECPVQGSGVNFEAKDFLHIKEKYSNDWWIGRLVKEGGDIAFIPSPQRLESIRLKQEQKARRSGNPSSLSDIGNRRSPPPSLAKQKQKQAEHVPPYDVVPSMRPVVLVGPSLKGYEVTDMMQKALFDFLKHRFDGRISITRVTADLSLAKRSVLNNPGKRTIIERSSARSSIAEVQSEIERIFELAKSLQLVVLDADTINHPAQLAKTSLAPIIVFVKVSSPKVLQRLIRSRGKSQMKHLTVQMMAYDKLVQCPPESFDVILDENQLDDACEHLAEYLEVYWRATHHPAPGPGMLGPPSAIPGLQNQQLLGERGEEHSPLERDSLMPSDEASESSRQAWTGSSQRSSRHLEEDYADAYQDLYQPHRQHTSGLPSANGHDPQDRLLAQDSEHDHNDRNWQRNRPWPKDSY
Method: The G-V curves are shown.
HEK-CaV2.2 cells were pretreated with various concentrations of compound 14 for 48 hours. CaV2.2 currents were acquired during 20-ms depolarizing pulses, and the current densities were calculated as a ratio of the peak current amplitude and each cell capacitance (0.1 μM, n=6; 1 μM, n=7; 10 μM, n=8; 50 μM, n=12). The line is the fit of the data to the four-parameter logistic function.
EK-CaV2.2 cells were pretreated with the indicated compounds for 48 hours. *** corresponds to […].
FIGS. 8 and 9 show the effects of 2 and 14 on the voltage dependence of activation of CaV2.2 channels in HEK-CaV2.2 cells pretreated with the vehicle or the indicated compounds for 48 hours. […] The gray vertical lines are the error bars (S.E.M.).
FIGS. 10 and 11 show acute effects of DMSO and 14 on the voltage dependence of activation of CaV2.2 channels in HEK-CaV2.2 cells. […] The gray vertical lines are the error bars (S.E.M.). “ns”—stands for not significant.
(§1) The whole cell patch-clamp technique was used to record CaV2.2 currents in HEK-CaV2.2 cells and rat DRG neurons. HEK293 cells that stably expressed rat N-type CaV2.2α1B, rat CaVβ3, and rat […] were utilized. Cells were grown in Dulbecco's modified Eagle's medium (DMEM) supplemented with 10% FBS, 50 units penicillin, 50 μg/ml streptomycin, 5 μg/ml blasticidin, 5 μg/ml hydromycin and 25 μg/ml zeozin at 37° C. in a humidified atmosphere of 95% air and 5% CO2. For patch clamp experiments, HEK-CaV2.2 cells were plated on glass coverslips and were cultured for 24-48 h. All animal procedures were performed in accordance to the NIH guide and were approved by the Indiana University School of Medicine Institutional Animal Care and Use Committee. Young adult Sprague Dawley rats were anesthetized (3% isoflurane) and then decapitated. The spinal column was removed, cut open, and dorsal root ganglia were harvested from the Lumbar L4-L6 vertebral levels. The ganglia were incubated in DMEM containing collagenase (1 mg/ml, Worthington: LS04194) and protease (1 mg/ml, Worthington: LS02104) for 30-60 minutes, and DRG neurons were dissociated by triturating in DMEM supplemented with 10% FBS. The isolated DRG neurons were plated on glass coverslips coated with growth factor reduced Matrigel (Thermo Fisher Scientific, Waltham, MA) and were cultured in Eagle's minimum essential medium (Invitrogen, CA) supplemented with 0.2% BSA and 20 ng/ml NGF-2.5S (BD Biosciences, Bedford, MA) at 37° C. in a water-jacketed 5% CO2 incubator overnight for the patch-clamp experiments.

[3] = tested on: tibial nerve injury (TNI) model of neuropathic pain; test: tibial nerve injury (TNI) model of neuropathic pain, von Frey withdrawal threshold; type: in vivo, rat; conditions: for withdrawal threshold to von Frey stimulation: 1 h, 28 days after TNI, before dosing 33.1±5.9, pre-surgery 68.7±3.7
Method: Pathogen-free, adult, female Sprague Dawley (weight at testing 150-200 g; Harlan-Sprague-Dawley, Indianapolis, IN) were housed in a climate-controlled room on a 12-hour light/dark cycle and were allowed to have food and water ad libitum. All procedures were approved by the Indiana University Animal Care and Use Committee and conformed to the guidelines of the National Institutes of Health (publication no. 80-23, 1966) for the use of laboratory animals. All behavioral experiments were conducted by experimenters blinded to the treatment conditions and compound identity. The experiments were replicated a minimum of 2 times with independent cohorts of animals.
For in vivo studies, the inventive compounds were freshly prepared saline (0.9%) on the day of the experiment. Morphine sulfate salt (Sigma-Aldrich, St. Louis, MO) was freshly prepared on the day of the experiment in saline. […]
The inventive compounds were assessed with the tibial nerve injury (TNI) model of neuropathic pain 28 days after surgery. Using isoflurane anesthesia (4% induction and 2% maintenance), the right sciatic nerve was isolated under aseptic surgical conditions by blunt dissection of the femoral biceps muscle and the tibial nerve was tightly ligated with 5-0 silk and transected distal to the ligation. Additional 2 to 3 mm of distal nerve stump was removed to prevent reinnervation by the proximal nerve. The overlying muscle and skin was then sutured in 2 separate layers. Sham-injured animals were subjected to all preceding procedures with the exception of ligation and transection. All animals were returned to the housing facility and allowed to survive for 28 d. Mechanical stimuli were applied with 7 filaments, each differing in the bending force delivered (10, 20, 40, 60, 80, 100, and 120 mN), and fitted with a flat tip and fixed diameter of 0.2 mm. The filaments were tested in the order of ascending force, with each filament delivered for 1 second. Withdrawal threshold was determined by sequentially increasing and analyzed with Hill equation was fitted to the function (Origin version 6.0; Microcal Software) relating the percentage of indentations eliciting a withdrawal to the force of indentation.

[4] = target: T2, CaVβ3 Arg-307-Ala (Rattus norvegicus, UniProt P54287, R307A); test: site-directed mutagenesis: displacement of fluorescently-labeled CaVα1-AID bound to mutated CaVβ3; type: binding
T2 construct: His; made in house
T2 sequence (P54287 whole entry R307A): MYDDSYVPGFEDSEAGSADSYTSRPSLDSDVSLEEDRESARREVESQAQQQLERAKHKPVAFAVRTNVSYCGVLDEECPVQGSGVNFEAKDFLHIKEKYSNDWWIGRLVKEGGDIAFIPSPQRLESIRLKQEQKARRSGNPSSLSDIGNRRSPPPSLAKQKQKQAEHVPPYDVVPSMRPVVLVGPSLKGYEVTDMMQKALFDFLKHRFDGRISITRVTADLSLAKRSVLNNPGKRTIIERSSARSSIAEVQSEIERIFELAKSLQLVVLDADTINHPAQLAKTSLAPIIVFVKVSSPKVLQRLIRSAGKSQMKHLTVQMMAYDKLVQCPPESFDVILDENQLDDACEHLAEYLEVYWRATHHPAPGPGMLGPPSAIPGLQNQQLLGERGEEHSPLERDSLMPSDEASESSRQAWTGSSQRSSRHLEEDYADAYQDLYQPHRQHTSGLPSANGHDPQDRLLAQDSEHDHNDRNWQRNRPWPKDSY
From the text: (§2) Compound 6 forms a salt bridge interaction with Arg-307 through a benzoic acid moiety. […] Arg-307 was mutated to alanine.

[5] = target: T3, CaVα1CaVβ3 interaction (Rattus norvegicus, UniProt P54287); test: fluorescence polarization assay, inhibition constant; type: binding; conditions: fluorescence polarization assay
T3 construct: made in house; host or cells: E. coli BL21(DE3)
T3 sequence (P54287 whole entry): as the sequence (P54287 whole entry) above
Method: (§3) The plasmid of pET28a-CaV2.2β3 subunit was transformed into competent E. Coli BL21(DE3) strain. Culture was grown in LB medium at 37° C. to an OD600 of approximately 0.6 and then induced with 0.5 mM IPTG at 16° C. for 16 h. Cells were collected by centrifugation and lysed by microfluidizer in lysis buffer (phosphate buffer, pH 7.6, 2 mM DTT). The His-CaVβ3 protein was purified at 4° C. using Ni-IMAC chromatography (His-Trap HP, GE Healthcare) and eluted with 500 mM imidazole in lysis buffer with a gradient method. After the fractions consisted of His-CaVβ3 was combined and concentrated, the protein was further purified using size exclusion chromatography (Superdex 200 pg, GE Healthcare) in PBS with 2 mM DTT.
as §2

[6] = target: T4, CaV2.2 currents in rat DRG neurons (Rattus norvegicus, UniProt Q02294); test: whole cell patch-clamp, CaV2.2 currents in rat DRG neurons; type: cell-based; conditions: 50 μM acute
T4 construct: from tissue; host or cells: dissociated dorsal root ganglion neurons (L4-L6) of young adult Sprague Dawley rats
T4 sequence (P54287 whole entry partner): as the sequence (P54287 whole entry) above
T4 sequence (Q02294 whole entry): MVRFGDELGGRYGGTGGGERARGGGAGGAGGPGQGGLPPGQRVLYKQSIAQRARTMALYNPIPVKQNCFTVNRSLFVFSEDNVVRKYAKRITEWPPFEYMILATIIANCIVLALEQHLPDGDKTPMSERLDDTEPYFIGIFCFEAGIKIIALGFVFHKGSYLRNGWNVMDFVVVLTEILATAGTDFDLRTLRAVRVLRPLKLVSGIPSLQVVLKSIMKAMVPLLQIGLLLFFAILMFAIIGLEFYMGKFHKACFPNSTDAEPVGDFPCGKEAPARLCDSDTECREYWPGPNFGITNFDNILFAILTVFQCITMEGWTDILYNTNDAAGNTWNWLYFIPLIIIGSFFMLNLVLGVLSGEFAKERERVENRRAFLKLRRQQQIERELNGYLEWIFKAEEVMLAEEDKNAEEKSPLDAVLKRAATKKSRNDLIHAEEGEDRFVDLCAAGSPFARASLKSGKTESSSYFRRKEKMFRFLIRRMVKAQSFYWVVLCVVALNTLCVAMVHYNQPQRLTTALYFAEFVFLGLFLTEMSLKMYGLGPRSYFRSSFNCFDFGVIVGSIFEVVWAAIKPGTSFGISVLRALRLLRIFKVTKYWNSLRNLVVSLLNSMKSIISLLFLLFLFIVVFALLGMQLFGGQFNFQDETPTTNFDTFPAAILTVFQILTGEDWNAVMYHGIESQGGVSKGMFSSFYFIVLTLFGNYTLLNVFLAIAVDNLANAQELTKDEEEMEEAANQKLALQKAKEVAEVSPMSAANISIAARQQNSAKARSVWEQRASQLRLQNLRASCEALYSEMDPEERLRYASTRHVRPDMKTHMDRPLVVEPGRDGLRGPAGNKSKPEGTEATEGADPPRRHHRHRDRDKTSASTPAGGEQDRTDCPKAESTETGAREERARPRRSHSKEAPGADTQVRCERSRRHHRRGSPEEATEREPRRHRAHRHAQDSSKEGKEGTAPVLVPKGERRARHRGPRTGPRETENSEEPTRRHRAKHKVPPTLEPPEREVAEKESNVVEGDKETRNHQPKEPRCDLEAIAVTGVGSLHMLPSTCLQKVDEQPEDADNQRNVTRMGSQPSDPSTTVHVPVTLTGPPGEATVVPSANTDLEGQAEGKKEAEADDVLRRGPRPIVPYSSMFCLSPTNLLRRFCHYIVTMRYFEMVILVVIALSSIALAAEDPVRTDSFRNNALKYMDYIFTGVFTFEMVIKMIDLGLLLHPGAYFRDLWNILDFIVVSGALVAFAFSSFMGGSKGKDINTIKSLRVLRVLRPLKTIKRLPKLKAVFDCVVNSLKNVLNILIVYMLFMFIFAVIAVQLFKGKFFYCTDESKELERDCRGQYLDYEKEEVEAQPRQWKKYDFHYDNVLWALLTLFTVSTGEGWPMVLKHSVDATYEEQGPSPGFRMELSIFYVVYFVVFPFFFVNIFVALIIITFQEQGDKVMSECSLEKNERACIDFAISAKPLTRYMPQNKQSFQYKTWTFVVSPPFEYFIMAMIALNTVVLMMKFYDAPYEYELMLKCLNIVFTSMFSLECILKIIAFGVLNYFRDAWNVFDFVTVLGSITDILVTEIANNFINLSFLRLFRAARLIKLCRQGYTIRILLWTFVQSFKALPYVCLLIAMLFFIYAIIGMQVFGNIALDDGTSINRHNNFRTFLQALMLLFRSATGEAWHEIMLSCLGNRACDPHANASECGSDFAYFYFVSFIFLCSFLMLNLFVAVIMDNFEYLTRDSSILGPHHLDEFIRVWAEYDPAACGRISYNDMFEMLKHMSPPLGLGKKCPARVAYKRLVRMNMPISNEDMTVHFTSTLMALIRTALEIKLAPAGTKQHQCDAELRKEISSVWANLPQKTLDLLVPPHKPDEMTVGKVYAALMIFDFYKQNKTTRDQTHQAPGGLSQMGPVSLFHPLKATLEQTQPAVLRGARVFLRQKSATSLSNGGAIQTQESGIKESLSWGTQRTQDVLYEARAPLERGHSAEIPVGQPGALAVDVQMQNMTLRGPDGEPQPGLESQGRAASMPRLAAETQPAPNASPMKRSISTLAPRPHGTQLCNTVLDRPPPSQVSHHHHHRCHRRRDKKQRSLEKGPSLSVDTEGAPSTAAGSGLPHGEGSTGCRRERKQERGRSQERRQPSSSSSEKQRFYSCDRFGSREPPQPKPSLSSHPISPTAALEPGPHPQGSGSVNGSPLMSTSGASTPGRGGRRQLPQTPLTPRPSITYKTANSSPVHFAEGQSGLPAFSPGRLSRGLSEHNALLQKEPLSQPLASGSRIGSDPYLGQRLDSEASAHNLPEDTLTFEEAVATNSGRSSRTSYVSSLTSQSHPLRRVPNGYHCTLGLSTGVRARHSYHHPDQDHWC
Method: as §1, with “The isolated DRG neurons were plated on glass coverslips coated with growth factor reduced Matrigel (Thermo Fisher Scientific, Waltham, MA) and were cultured in Eagle's minimum essential medium (Invitrogen, CA) supplemented with 0.2% BSA and 20 ng/ml NGF-2.5S (BD Biosciences, Bedford, MA) at 37° C. in a water-jacketed 5% CO2 incubator overnight for the patch-clamp experiments.” left out

[7] = target: T5, CaVβ3 (Rattus norvegicus, UniProt P54287); test: label-free microscale thermophoresis (MST), direct binding; conditions: direct binding to CaVβ3, read-out: dissociation constant (Kd)
T5 construct: made in house; host or cells: E. coli BL21(DE3)
T5 sequence (P54287 whole entry): as the sequence (P54287 whole entry) above
Method: Curve fitting analysis led to a dissociation constant of 3.6±1.1 μM.
as §3
Direct binding of compound 6 to CaVβ3 was confirmed with label-free microscale thermophoresis (MST).

| steady-state inactivation V0.5, inact ([2]; 50 μM, pretreated 48 hours) | density of CaV2.2 currents ([2]; 50 μM, pretreated 48 hours, depolarizing pulses to 0 mV from holding potential −80 mV, DMSO −74.8±7.0) | mean half-activation potential V0.5, act ([2]; pretreated 48 hours, DMSO 8.7±1.1) | effect on CaV2.2 currents amplitudes ([2]; used acutely or as a long-term treatment, HEK-CaV2.2 cells) | Ki [5] | effect on CaV2.2 currents, acute application [6] | Kd [7] | effect on CaV2.2 currents, acute application ([2]; 50 μM acute, HEK-CaV2.2 cells) | CaV2.2 current density ([2]; 50 μM, pretreated 48 hours, DMSO −98.0±12.5) | mean half-activation potential ([2]; pretreated 48 hours (50 μM per FIG. 4), DMSO 6.7±0.6) | SMILES | paw withdrawal latency (PWL), analgesic effect [1] | withdrawal threshold to von Frey stimulation ([3]; 10 mg/kg ip) | inhibition of the protein-protein interaction with CaVβ3 Arg-307-Ala (displacement of fluorescently-labeled CaVα1-AID) [4] | response latency to thermal stimulus ([1]; systemic administration, 1 or 10 mg/kg) | effect on behavior (tactile hypersensitivity) ([3]; 1 mg/kg and 0.1 mg/kg, at 1 or 4 hours) | attenuation of tactile hypersensitivity at 4 h ([3]; 10 mg/kg ip, 4 h after administration) | duration of reversal of mechanical hypersensitivity ([3]; 10 mg/kg, 4 weeks after TNI) |
| --- | --- | --- | --- | --- | --- | --- | --- | --- | --- | --- | --- | --- | --- | --- | --- | --- | --- |
| −61.6±2.0 mV | −79.2±8.2 pA/pF | 8.5±1.4 mV | did not affect | – | – | – | – | – | – | COc1ccc(C2=NN(C(=O)CCC(C)=O)C(c3cn(-c4ccccc4)nc3-c3ccc(C)cc3)C2)cc1 (stereo not shown) [Compound 2, 1-(5-(4-methoxyphenyl)-1′-phenyl-3′-(p-tolyl)-3,4-dihydro-1′H,2H-[3,4′-bipyrazol]-2-yl)pentane-1,4-dione] | lack of analgesic effect | 32±2.6 mN | – | – | – | – | – |
| – | – | – | – | 1400 ± 100 nM | did not affect | 3600 ± 1100 nM | did not affect | −28.7±5.0 pA/pF | 9.4±1.2 mV | COc1ccc(C2=NN(C(=O)c3cccc(C(=O)O)c3)C(c3cn(-c4ccccc4)nc3-c3ccc(C)cc3)C2)cc1 (stereo not shown) [Compound 6, 3-(5-(4-methoxyphenyl)-1′-phenyl-3′-(p-tolyl)-3,4-dihydro-1′H,2H-[3,4′-bipyrazole]-2-carbonyl)benzoic acid] | lack of analgesic effect | 62.2±3.1 mN | does not inhibit | failed to elicit changes | did not alter behavior | not at 4 h | limited to 1 h |
